Test results from US20260159536A1, “AKR1C3-ACTIVATED DNA ALKYLATING AGENT, AND MEDICAL APPLICATION THEREOF” (ASCENTAWITS PHARMACEUTICALS, LTD., priority 2021, published 2026).
Where two headings read alike, the source gives them in different places.

How the values were obtained:
[1] = system: NCI-H1792; assay: AKR1C3-dependent cytotoxicity, NSCLC cell line NCI-H1792; type: cell-based; details: Homo sapiens
Procedure: (§1) The tested compound was then added. The compound was dissolved in 100% DMSO at 200 times of the desired final test concentration. When the medicament was added, the compound was further diluted to 4 times of the desired final test concentration by using the complete medium. 50 μL of aliquots of the compound with specific concentration were added to the microwells containing 150 μL of medium, and then the final medicament concentration was obtained. […] The medicament was then washed. […] After the incubation was finished, the Alamar Blue was used to analyze and quantify the living cells.

[2] = Liver microsome stability, rat; type: in vitro ADME; details: for Percentage remaining after 30 minutes: Rat liver microsomes
Procedure: (§2) 1) Two individual experiments were performed.
(§3) All experiments were performed in duplicate.

[3] = system: H460 cancer cells; assay: H460 proliferation in the presence or absence of AKR1C3 inhibitor AST-3021 (Alamar Blue); type: cell-based, human; details: for IC50: Homo sapiens, NCI-H460, H460, 2 hours exposure; for Fold: IC50 with AST-3021 over IC50 without
Procedure: as §1

[4] = system: NCIH2106; assay: AKR1C3-dependent cytotoxicity, NSCLC cell line NCIH2106; type: cell-based
Procedure: as §1

[5] = Liver microsome stability, mouse; type: in vitro ADME; details: for Percentage remaining after 30 minutes: Mouse liver microsomes
Procedure: as §2, §3

[6] = molecular target: T1, P-gp (Homo sapiens, UniProt P08183); assay: P-gp substrate evaluation, MDCKII-MDR1 penetration test with or without Verapamil; type: in vitro ADME; details: for P-gp substrate: MDCKII-MDR1, with and without Verapamil; for Papp A→B at 2 h / Papp B→A at 2 h / recovery at 2 h: dog; for Papp A→B at 2 h / Papp B→A at 2 h: MDCK-MDR1
T1 construct: expressed in transfected cells; host or cells: MDCKII-MDR1 cells
T1 sequence (P08183 whole entry): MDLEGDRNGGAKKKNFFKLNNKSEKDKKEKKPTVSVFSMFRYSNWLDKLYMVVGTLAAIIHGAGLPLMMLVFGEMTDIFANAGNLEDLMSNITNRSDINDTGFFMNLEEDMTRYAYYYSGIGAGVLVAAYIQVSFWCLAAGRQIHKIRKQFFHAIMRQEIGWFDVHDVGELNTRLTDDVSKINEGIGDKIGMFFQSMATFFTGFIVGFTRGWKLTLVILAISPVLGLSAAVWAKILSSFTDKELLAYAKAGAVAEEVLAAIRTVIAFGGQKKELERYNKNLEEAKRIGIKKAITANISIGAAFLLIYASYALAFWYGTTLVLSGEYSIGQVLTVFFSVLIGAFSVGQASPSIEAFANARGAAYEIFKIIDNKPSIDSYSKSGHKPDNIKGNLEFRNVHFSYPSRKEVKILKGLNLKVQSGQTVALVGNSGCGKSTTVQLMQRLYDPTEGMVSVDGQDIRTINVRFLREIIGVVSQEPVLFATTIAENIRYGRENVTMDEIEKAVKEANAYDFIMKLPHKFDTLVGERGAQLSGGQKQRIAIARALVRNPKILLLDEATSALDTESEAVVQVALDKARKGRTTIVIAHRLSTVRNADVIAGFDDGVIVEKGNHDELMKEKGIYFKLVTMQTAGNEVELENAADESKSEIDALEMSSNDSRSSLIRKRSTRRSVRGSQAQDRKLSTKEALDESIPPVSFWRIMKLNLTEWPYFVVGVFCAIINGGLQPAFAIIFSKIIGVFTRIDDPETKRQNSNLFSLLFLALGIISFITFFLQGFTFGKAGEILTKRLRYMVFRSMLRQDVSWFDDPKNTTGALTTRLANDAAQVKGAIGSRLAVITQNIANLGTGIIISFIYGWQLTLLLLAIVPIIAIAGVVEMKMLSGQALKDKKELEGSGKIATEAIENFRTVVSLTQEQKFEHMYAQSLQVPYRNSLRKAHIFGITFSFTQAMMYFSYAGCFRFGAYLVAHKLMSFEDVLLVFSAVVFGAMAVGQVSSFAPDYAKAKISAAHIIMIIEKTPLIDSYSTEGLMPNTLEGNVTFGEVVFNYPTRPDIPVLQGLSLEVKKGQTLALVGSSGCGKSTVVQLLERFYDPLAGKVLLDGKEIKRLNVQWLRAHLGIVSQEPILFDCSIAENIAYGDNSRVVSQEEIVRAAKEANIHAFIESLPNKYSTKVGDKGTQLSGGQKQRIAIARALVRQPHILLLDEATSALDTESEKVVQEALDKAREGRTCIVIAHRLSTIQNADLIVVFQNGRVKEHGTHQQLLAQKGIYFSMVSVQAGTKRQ
Procedure: The conditions of the incubator were set as 37° C., 5% CO2, and 95% of the relative humidity.
After that, the MDCKII-MDR1 cells can be used for the penetration test.
(1) MDCKII-MDR1 transwell culture plate was taken out from the incubator.
(6) The upper and lower transportations were pooled and then incubated at 37° C. for 2 h.
After the sample tubes were vortexed for 10 min, and centrifuged at 3220 g for 30 min. […] Each sample was adopted to the three parallel incubation.
Efflux Ratio was calculated by the following formula: […]
Recovery was calculated by the following formula: […]

[7] = system: NCI-H522; assay: AKR1C3-dependent cytotoxicity, NSCLC cell line NCI-H522; type: cell-based; details: Homo sapiens
Procedure: as §1

[8] = system: HuPrime model GA6201 human gastric cancer; details: for Relative tumor volume (x ± S) / T/C (%) / TGI (%) / Tumor volume (x ± S): Day 38; for body weight change / toxic effects: GA6201 model, tested doses
Procedure: The test was divided into groups of the test drug Isocyclophosphamide 60 mg/kg group, the test drug AST-3424 5 mg/kg group, the test drug A compound 2.5 mg/kg and 5 mg/kg groups, and normal saline (pH 7.0-7.6) vehicle control group, a total of 5 groups, with 5 mice per group.
In the above dosing regimen, Isocyclophosphamide was designed based on the best dosing regimen with maximum safe dosage as recited in the document (Jessica D. Sun, Qian Liu, Dharmendra Ahluwalia, Damien J. Ferraro, Yan Wang, Don Jung, Mark D. Matteucci, and Charles P. Hart. Comparison of hypoxia-activated prodrug evofosfamide (TH-302) and ifosfamide in preclinical non-small cell lung cancer models [J]. Cancer Biology & Therapy, 2016, 17(4): 371-380).

[9] = AST-3021 3 micromolar, read-out: IC50 With the addition of AST-3021
[10] = no AKR1C3 inhibitor, read-out: IC50 Without the addition of AST-3021
[11] = MDCK-MDR1, Verapamil 0 μM, read-out: Recovery (%) AP-BL
[12] = MDCK-MDR1, Verapamil 0 μM, read-out: Recovery (%) BL-AP
[13] = MDCK-MDR1, with Verapamil 100 μM, Verapamil 100 μM, read-out: Recovery (%) AP-BL
[14] = MDCK-MDR1, with Verapamil 100 μM, Verapamil 100 μM, read-out: Recovery (%) BL-AP

SMILES: O=[N+]([O-])c1ccc(C(OP(=O)(N2CC2)N2CC2)C(F)(F)F)cc1Oc1ccc(-c2ccc(F)cc2)c(F)c1 (racemic) [Compound A]
- IC50 [1]: 0.375 µM
- Percentage remaining after 30 minutes ([2]; with the addition of NADPH): 92.10%
- Percentage remaining after 30 minutes ([2]; without the addition of NADPH): 114.62%
- stability in liver microsomes ([2]; rat): relatively unstable
- IC50 [3, 9]: 2.14 µM
- IC50 [3, 10]: 0.00582 µM
- Fold [3]: 367.13
- IC50 [4]: 6.86 µM
- Percentage remaining after 30 minutes ([5]; with the addition of NADPH): 98.59%
- Percentage remaining after 30 minutes ([5]; without the addition of NADPH): 104.30%
- stability in liver microsomes ([5]; mouse): relatively stable
- P-gp substrate [6]: not substrates for Pgp
- Papp A→B at 2 h [6]: 0.18 ×10⁻⁶ cm/s
- Papp B→A at 2 h [6]: 0.24 ×10⁻⁶ cm/s
- recovery at 2 h [6, 11]: 5.03%
- recovery at 2 h [6, 12]: 4.34%
- recovery at 2 h [6, 13]: 5.7%
- recovery at 2 h [6, 14]: 12.6%
- IC50 [7]: 14.1 µM
- relative tumor inhibition rate (TGI) ([8]; 2.5 mg/kg and 5 mg/kg i.v. QWx2): more than 96%
- Relative tumor volume (x ± S) ([8]; 2.5 mg/kg i.v. QWx2): 0.29 ± 0.08
- T/C (%) ([8]; 2.5 mg/kg i.v. QWx2): 3.15%
- TGI (%) ([8]; 2.5 mg/kg i.v. QWx2): 96.85%
- Tumor volume (x ± S) ([8]; 2.5 mg/kg i.v. QWx2): 28.69 ± 8.2
- Tumor volume ([8]; 2.5 mg/kg i.v., 0 day): 94.61 mm^3
- Tumor volume ([8]; 2.5 mg/kg i.v., 3 days): 120.19 mm^3
- Tumor volume ([8]; 2.5 mg/kg i.v., 7 days): 118.33 mm^3
- Tumor volume ([8]; 2.5 mg/kg i.v., 10 days): 118.65 mm^3
- Tumor volume ([8]; 2.5 mg/kg i.v., 14 days): 96.08 mm^3
- Tumor volume ([8]; 2.5 mg/kg i.v., 17 days): 76.14 mm^3
- Tumor volume ([8]; 2.5 mg/kg i.v., 21 days): 71.72 mm^3
- Tumor volume ([8]; 2.5 mg/kg i.v., 24 days): 57.94 mm^3
- Tumor volume ([8]; 2.5 mg/kg i.v., 28 days): 45.51 mm^3
- Tumor volume ([8]; 2.5 mg/kg i.v., 31 days): 43.44 mm^3
- Tumor volume ([8]; 2.5 mg/kg i.v., 35 days): 32.04 mm^3
- Tumor volume ([8]; 2.5 mg/kg i.v., 38 days): 28.69 mm^3
- Tumor volume ([8]; 2.5 mg/kg i.v., 42 days): 23.49 mm^3
- Tumor volume ([8]; 2.5 mg/kg i.v., 45 days): 25.00 mm^3
- Tumor volume ([8]; 2.5 mg/kg i.v., 49 days): 17.72 mm^3
- Relative tumor volume (x ± S) ([8]; Compound A 5 mg/kg i.v. QWx2): 0.19 ± 0.08
- T/C (%) ([8]; Compound A 5 mg/kg i.v. QWx2): 2.04%
- TGI (%) ([8]; Compound A 5 mg/kg i.v. QWx2): 97.96%
- Tumor volume (x ± S) ([8]; Compound A 5 mg/kg i.v. QWx2): 19.97 ± 10.18
- Tumor volume ([8]; Compound A 5 mg/kg i.v., 0 day): 94.36 mm^3
- Tumor volume ([8]; Compound A 5 mg/kg i.v., 3 days): 118.42 mm^3
- Tumor volume ([8]; Compound A 5 mg/kg i.v., 7 days): 101.91 mm^3
- Tumor volume ([8]; Compound A 5 mg/kg i.v., 10 days): 97.17 mm^3
- Tumor volume ([8]; Compound A 5 mg/kg i.v., 14 days): 74.20 mm^3
- Tumor volume ([8]; Compound A 5 mg/kg i.v., 17 days): 59.77 mm^3
- Tumor volume ([8]; Compound A 5 mg/kg i.v., 21 days): 46.21 mm^3
- Tumor volume ([8]; Compound A 5 mg/kg i.v., 24 days): 44.03 mm^3
- Tumor volume ([8]; Compound A 5 mg/kg i.v., 28 days): 38.50 mm^3
- Tumor volume ([8]; Compound A 5 mg/kg i.v., 31 days): 35.92 mm^3
- Tumor volume ([8]; Compound A 5 mg/kg i.v., 35 days): 22.70 mm^3
- Tumor volume ([8]; Compound A 5 mg/kg i.v., 38 days): 19.97 mm^3
- Tumor volume ([8]; Compound A 5 mg/kg i.v., 42 days): 5.05 mm^3
- Tumor volume ([8]; Compound A 5 mg/kg i.v., 45 days): 11.14 mm^3
- Tumor volume ([8]; Compound A 5 mg/kg i.v., 49 days): 9.96 mm^3
- body weight change / toxic effects [8]: no effect on the body weights

SMILES: C[C@@H](OP(=O)(N1CC1)N1CC1)c1ccc([N+](=O)[O-])c(Oc2cccc(C(=O)N(C)C)c2)c1 [AST-3424]
- IC50 [1]: 0.0045 µM
- Percentage remaining after 30 minutes ([2]; with the addition of NADPH): 8.79%
- IC50 [3, 9]: 0.0449 µM
- IC50 [3, 10]: 0.000349 µM
- Fold [3]: 128.71
- IC50 [4]: > 1 µM
- Percentage remaining after 30 minutes ([5]; with the addition of NADPH): 3.1%
- P-gp substrate [6]: Pgp substrate
- Papp A→B at 2 h [6]: 1.95 ×10⁻⁶ cm/s
- Papp B→A at 2 h [6]: 34.5 ×10⁻⁶ cm/s
- recovery at 2 h [6, 11]: 79.1%
- recovery at 2 h [6, 12]: 90.6%
- recovery at 2 h [6, 13]: 92.6%
- recovery at 2 h [6, 14]: 96.3%
- IC50 [7]: > 1 µM
- Relative tumor volume (x ± S) ([8]; AST-3424 5 mg/kg i.v. QWx2): 0.11 ± 0.07
- T/C (%) ([8]; AST-3424 5 mg/kg i.v. QWx2): 1.21%
- TGI (%) ([8]; AST-3424 5 mg/kg i.v. QWx2): 98.79%
- Tumor volume (x ± S) ([8]; AST-3424 5 mg/kg i.v. QWx2): 12.65 ± 7.91
- Tumor volume ([8]; AST-3424 5 mg/kg i.v., 0 day): 94.19 mm^3
- Tumor volume ([8]; AST-3424 5 mg/kg i.v., 3 days): 114.98 mm^3
- Tumor volume ([8]; AST-3424 5 mg/kg i.v., 7 days): 84.33 mm^3
- Tumor volume ([8]; AST-3424 5 mg/kg i.v., 10 days): 77.04 mm^3
- Tumor volume ([8]; AST-3424 5 mg/kg i.v., 14 days): 63.59 mm^3
- Tumor volume ([8]; AST-3424 5 mg/kg i.v., 17 days): 52.08 mm^3
- Tumor volume ([8]; AST-3424 5 mg/kg i.v., 21 days): 45.81 mm^3
- Tumor volume ([8]; AST-3424 5 mg/kg i.v., 24 days): 40.55 mm^3
- Tumor volume ([8]; AST-3424 5 mg/kg i.v., 28 days): 30.28 mm^3
- Tumor volume ([8]; AST-3424 5 mg/kg i.v., 31 days): 23.24 mm^3
- Tumor volume ([8]; AST-3424 5 mg/kg i.v., 35 days): 18.55 mm^3
- Tumor volume ([8]; AST-3424 5 mg/kg i.v., 38 days): 12.65 mm^3
- Tumor volume ([8]; AST-3424 5 mg/kg i.v., 42 days): 13.42 mm^3
- Tumor volume ([8]; AST-3424 5 mg/kg i.v., 45 days): 10.82 mm^3
- Tumor volume ([8]; AST-3424 5 mg/kg i.v., 49 days): 8.15 mm^3
- body weight change / toxic effects [8]: no toxic effects
